Experimental findings from patent publication US20250275964A1, “METHODS OF INHIBITING LIVER-TYPE GLUTAMINASE, GLS2” (CORNELL UNIVERSITY, priority 2019, published 2025) are described below.

In assay [1] the test system is MDA-MB-231 cells stably expressing GLS2. The experiment in a line: 6-day cell proliferation assay, MDA-MB-231 stably expressing GLS2. The assay is classed as cell-based, human. The method, then: Culture medium was added to 12-well plates (1 ml/well) and wells were seeded with cells at Day 0 as follows. MCF7, T-47D, BT-474, HCC38 cells: […] cells/well. MDA-MB-453 and MDA-MB-231 cells: 1×10^4 cells/well. TSE and Hs 578T cells: 0.3×10^4 cells/well. After 16 hours, culture medium was replaced with fresh medium supplemented with appropriate concentrations of inhibitors and was subsequently replaced every 48 hours. On Day 6 cells were trypsinized and suspended in an appropriate volume of culture medium, and the total number of cells per well was determined using a hemocytometer or a TC20 Automated Cell Counter (Bio-Rad).
Vectors for expressing human GAC or GLS2 in breast cancer cell lines were based on pCDNA3.1/V5-His TOPO (Thermo Fisher Scientific), with the appropriate gene sub-cloned in and the tag switched to HA-tag or myc-tag for immunofluorescence experiments. Vectors pQE80-GAC-72-598 and pQE80-GLS2-38-602, for expressing the processed forms of human GAC (residues 72 to 598) or GLS2 (residues 38 to 602) in E. coli, were described in Huang et al., “Characterization of the Interactions of Potent Allosteric Inhibitors with Glutaminase C, a Key Enzyme in Cancer Cell Glutamine Metabolism,” J. Biol. Chem. 293:3535-3545 (2018), which is hereby incorporated by reference in its entirety.
For 60 mm dish format. 0.2 ml Opti-MEM (Gibco) containing […] of the appropriate DNA construct, along with 0.2 ml Opti-MEM containing 12 μl Lipofectamine 2000 (Invitrogen), were separately incubated at room temperature for 5 min. The two solutions were combined and incubated for an additional 20 min, mixed with 1.6 ml culture medium and added to cells. After 5 hours incubation at 37° C. the transfection mixture was replaced with fresh culture medium, and cells were then incubated for an additional 48 hours to allow for ectopic expression of GLS or GLS2. To select for cells stably expressing the DNA construct, culture medium supplemented with 500 μg/ml G-418 disulfate (Research Products International) was added and replaced every 2 days for 2-3 weeks until isolated colonies ˜2 mm in diameter were present. Individual colonies were transferred to a 12-well plate (1 colony per well) using sterile blotting paper soaked in trypsin solution and were then cultured in medium supplemented with 250 μg/ml G-418 disulfate. All colonies were screened by western blot for ectopic expression, and positive clones were maintained in medium supplemented with 250 μg/ml G-418 disulfate.

The subject of assay [2] is MDA-MB-453 xenograft tumors. The experiment in a line: MDA-MB-453 xenograft tumor growth in mice. Conditions: 10 mg/kg, 3 times per week from Day 14 for three weeks, NSG mice. The assay is classed as in vivo. The method, then: All experiments involving mice were carried out according to protocols approved by the Institutional Animal Care and Use Committee at Cornell University. In all cases, 6-8 week old female NOD.Cg-Prkdcscid Il2rg^tm1Wjl/SzJ (NSG) mice (The Jackson Laboratory) were used. For xenograft experiments, a suspension of MDA-MB-453 breast cancer cells (or derivative cell lines stably expressing shRNAs) was mixed 1:1 with Matrigel Matrix (BD Biosciences) to give a final concentration of 3×10^6 cells per 100 μl, and 3×10^6 cells were immediately injected into each of the two flanks of 6-8 week old female NOD.Cg-Prkdc^scid Il2rg^tm1Wjl/SzJ (NSG) mice (n=3 mice per condition). Tumor sizes were measured using calipers, and estimated volumes were calculated using the formula V=(π/6)×length×width^2, as described previously (Tomayko et al., “Determination of Subcutaneous Tumor Size in Athymic (Nude) Mice,” Cancer Chemother Pharmacol. 24:148-154 (1989), which is hereby incorporated by reference in its entirety). For experiments using MDA-MB-453 cells stably expressing shRNAs, mice were sacrificed after 6 weeks. For 968 treatment studies, when tumors of 1-2 mm diameter were detected, the mice were randomly divided into two groups and intraperitoneal (IP) injections of 968 (10 mg/kg) solution or carrier solution were initiated and carried out three times weekly. […]

The mark [3] stands for this setting: MDA-MB-231 GLS2 clone 1, 6 days.
[4] abbreviates: MDA-MB-231 GLS2 clone 2, 6 days.

The EC50 is the midpoint of the concentration-response curve.

The structures appear in SMILES notation.

For the molecule `O=C(Cc1ccccc1)Nc1nnc(CCSCCc2nnc(NC(=O)Cc3ccccc3)s2)s1` [BPTES], the 50% effective concentration (EC50) is > 20 µM in assay [1] (setting [3]); > 20 µM in assay [1] (setting [4]); > 20 µM in assay [1] (MDA-MB-231 with ectopic expression of GLS2, 6 days). Besides, the tumor growth entry in assay [2] was “did not significantly impact tumor growth”.
In the case of `CN(C)c1ccc(C2Nc3ccc4ccccc4c3C3=C2C(=O)CC(C)(C)C3)cc1Br` (stereo not shown) [Compound 968], the half-maximal effective concentration (EC50) worked out at 4 µM in assay [1] (setting [3]) and 5 µM in assay [1] (setting [4]). Further, the tumor growth result in assay [2] was “robustly inhibited”.
